Measured values reported in patent US11136551B2, “In vitro method of differentiating a human pluripotent stem cell population into a cardiomyocyte cell population” (Ncardia B.V., priority 2015, dated 2021).

How the values were obtained:
[1] = test system: human pluripotent stem cells; assay: In vitro differentiation of human pluripotent stem cells into cardiomyocytes: yield and progress of differentiation; assay type: cell-based; details: in combination with XAV-939, relative to IWP-L6
Procedure: IGF may be added during any stage of the method of differentiating the human pluripotent stem cell population. IGF may, for example, be provided to the human pluripotent stem cell population immediately after plating or passaging the cells (i.e. after transferring of a small number of cells into a new vessel for cultivating) and before, for example, step a) is performed (the contacting of the cells with at least the Wnt-signaling agonist), or before step b) is performed (the contacting of the cells with XAV-939 and IWP-L6 and/or C-59). […]
For differentiation, cells were seeded in 12-well plates at density of 60,000 cells per well or a split ratio that was empirically determined to give 30-80% confluence after 4 days. […]
Cell numbers were determined with a Fuchs-Rosenthal counting chamber. […] Cells were counted and number of cells was determined using following equations: cells/ml=average count per square×dilution factor×5000 total cells=cells/ml×total original volume of cell suspension from which sample was taken. […] GFP fluorescence reports the expression of the endogenous NKX2.5 gene and enables identification/quantification of hPSC-derived cardiomyocytes during differentiation. Method of Measuring TNNT2 (Using FACS) The percentage TNNT2 expressing cells was measured by flow cytometric analysis. […]

dishevelled 2 (Dvl2) = details: HEK293 cells; cited from earlier work
hIPSC lines = assay: Percentage of cardiomyocytes by flow cytometry for Troponin-T (TNNT-2) at day 14; assay type: cell-based, human; details: for differentiation efficiency (TNNT-2 positive cells): FIG. 5, day 14
Procedure: For differentiation, cells were seeded in 12-well plates at density of 60,000 cells per well or a split ratio that was empirically determined to give 30-80% confluence after 4 days. Culture media was […] days with a differentiation media as disclosed herein, for example containing 46.5% IMDM (Gibco 21056), 0.25% Bovostar BSA, 46.5% Ham's F12 with Glutamax, 2 mM Glutamax, 450 nM […], 0.05 mg/ml ascorbic acid, 0.5% 5000 U/ml Pen/Strep (Gibco 12070), 0.01% 1000* Trace elements mix B (Cellgro 99-176-CL), 0.1% 1000* Trace elements mix C (Cellgro 99-176-CL). In several experiments 0.1% ITS-x was used from day 4-14, i.e. during differentiation of the cells. Cell numbers were determined with a Fuchs-Rosenthal counting chamber. Briefly, cells grown in monolayer cultures were detach from surface of plate using TrypLETM Select Enzyme (Life Technologies). A uniform cell suspension was transferred to the edge of hemocytometer counting chamber. Cells were counted and number of cells was determined using following equations: cells/ml=average count per square×dilution factor×5000 total cells=cells/ml×total original volume of cell suspension from which sample was taken. Method of Measuring NKX2.5 NKX-GFP reporter hESC and iPSC cells have been described previously. These cells express the fluorescent protein GFP under the control of the endogenous NKX2-5 promoter. GFP+ve cells mark cardiomyocytes (Elliott D A et al. Nat. Methods, 8 (2011), pp. 1037-1040; van den Berg C W et al., Development. 2015 Jul. 24. pii: dev.123810. [Epub ahead of print]). NKX 2.5 is transcription factor essential for heart development and it is expressed in the heart throughout life. GFP fluorescence reports the expression of the endogenous NKX2.5 gene and enables identification/quantification of hPSC-derived cardiomyocytes during differentiation. Method of Measuring TNNT2 (Using FACS) The percentage TNNT2 expressing cells was measured by flow cytometric analysis. Briefly, cells were dissociated with TrypLETM Select Enzyme (Life Technologies), washed with PBS, fixed and permeabilized with FIX & PERM® Cell Fixation and Permeabilization Kit (Life Technologies). Samples were incubated with Troponin T (TNNT2), Cardiac Isoform Ab-1, Mouse Monoclonal Antibody (ThermoFisher, MS-295-P1; at 1:1000 dilution) followed by incubation with secondary antibody Donkey Anti-mouse APC (Jackson Immuno, 715-136-151; at 1:500 dilution) both diluted in Fix&Perm Medium B. Samples were analyzed on a NovocyteTM Flow Cytometer (ACEA Bioscicences) or a MACSQuant VYB instrument (Miltenyi Biotech). […] Two […] cultured on feeders in KOSR (InvitroGen)/FGF supplemented DMEM-F12. To start differentiation, cells were dissociated using Accutase and resuspended in mTesR at a concentration of 60,000/ml cells, the cell suspension was seeded onto Matrigel coated 12-well plates. Cells were maintained for 4 days before onset of differentiation. Cells were treated for 2 days with 5 microMolar CHIR99021, followed by 2 days culture in the presence of specific Wnt inhibiting small molecules, next the cells were cultured for 10 days in differentiation medium. Percentage of cardiomyocytes (FIG. 4A; % TNNT2 positive cells at day 14) was determined at day 14 of differentiation using flow cytometry for the pan-cardiac marker Troponin-T (TNNT-2). […] Presence and absence or concentration have no significant effect on the total number of cells (FIG. 4B; cell count at day 14, in million cells/well). […]

[2] = test system: NKX2-5-GFP reporter stem cells; assay: Percentage of cardiomyocytes by flow cytometry of GFP positive cells at day 14; assay type: cell-based, human; details: FIG. 3, reduction of IWP-L6 from 2 microMolar to 0.25 microMolar
Procedure: For differentiation, cells were seeded in 12-well plates at density of 60,000 cells per well or a split ratio that was empirically determined to give 30-80% confluence after 4 days. Culture media was […] days with a differentiation media as disclosed herein, for example containing 46.5% IMDM (Gibco 21056), 0.25% Bovostar BSA, 46.5% Ham's F12 with Glutamax, 2 mM Glutamax, 450 nM […], 0.05 mg/ml ascorbic acid, 0.5% 5000 U/ml Pen/Strep (Gibco 12070), 0.01% 1000* Trace elements mix B (Cellgro 99-176-CL), 0.1% 1000* Trace elements mix C (Cellgro 99-176-CL). In several experiments 0.1% ITS-x was used from day 4-14, i.e. during differentiation of the cells. Cell numbers were determined with a Fuchs-Rosenthal counting chamber. […] Cells were counted and number of cells was determined using following equations: cells/ml=average count per square×dilution factor×5000 total cells=cells/ml×total original volume of cell suspension from which sample was taken. […] GFP fluorescence reports the expression of the endogenous NKX2.5 gene and enables identification/quantification of hPSC-derived cardiomyocytes during differentiation. Method of Measuring TNNT2 (Using FACS) The percentage TNNT2 expressing cells was measured by flow cytometric analysis. […] Percentage of cardiomyocytes was determined at day 14 of differentiation using flow cytometry for detection/quantification of GFP positive cells. […]

Question: With `Cc1cc(-c2ccc(CC(=O)Nc3ccc(-c4cccnc4)cc3)cc2)ccn1` [C59, 2-[4-(2-methylpyridin-4-yl)phenyl]-N-(4-pyridin-3-ylphenyl)acetamide] as the molecule, how does the “toxicity to the human pluripotent stem cells” value [1] read?
Answer: more toxic

Question: What about the “yield of cell obtained with the method” value ([1]; data not shown) of the same molecule?
Answer: reduced yield

Question: Which results are given for `O=C(CSc1nc2c(c(=O)n1-c1ccccc1)SCC2)Nc1ccc(-c2ccccc2)cn1` [IWP-L6, 2-[(4-oxo-3-phenyl-6,7-dihydrothieno[3,2-d]pyrimidin-2-yl)sulfanyl]-N-(5-phenylpyridin-2-yl)acetamide]?
Answer: phosphorylation of dishevelled 2 (Dvl2) (dishevelled 2 (Dvl2)): suppress phosphorylation of dishevelled 2 (Dvl2); differentiation (% TNNT2 positive cells at day 14) (hIPSC lines; FIG. 4A, addition of IWP-L6 at 0.25 microMolar to XAV939): further improves the differentiation; differentiation efficiency (TNNT-2 positive cells) (hIPSC lines; alone): about 70%; differentiation efficiency (GFP positive cells) [2]: increases the differentiation efficiency even further

Question: For `O=c1[nH]c(-c2ccc(C(F)(F)F)cc2)nc2c1CSCC2` [XAV-939, 3,5,7,8-Tetrahydro-2-[4-(trifluoromethyl)phenyl]-4H-thiopyrano[4,3-d]pyrimidin-4-one], which “differentiation efficiency (% TNNT2 positive cells at day 14)” value (hIPSC lines; FIG. 4A, further increase of concentration above 5 microMolar) is on record?
Answer: reduces differentiation efficiency

Question: What about the “optimal concentration (% TNNT2 positive cells at day 14)” value (hIPSC lines; FIG. 4A, titration of XAV-939, two hIPSC lines) of the same molecule?
Answer: 5 microMolar

Question: What about the “differentiation efficiency (TNNT-2 positive cells)” value (hIPSC lines; addition of XAV939 to IWP-L6) of the same molecule?
Answer: further increased
